US20130338184A1, “2-AMINO-NAPHTHYRIDINE DERIVATIVES” (priority 2011, published 2013)

Test: Metabolic stability in human liver S9 fractions
Assay type: in vitro ADME
Conditions: for % Δ of % parent remaining (relative to S): relative to Pagoclone (S); for % Δ of % parent remaining (relative to racemic): relative to Pagoclone (racemic)
Procedure: Materials: Human liver S9 (20 mg/mL) were obtained from Xenotech, LLC (Lenexa, Kans.). (3-nicotinamide adenine dinucleotide phosphate, reduced form (NADPH), magnesium chloride (MgCl2), and dimethyl sulfoxide (DMSO) were purchased from Sigma-Aldrich.
Determination of Metabolic Stability: 10 mM stock solutions of test compounds were prepared in DMSO. The 10 mM stock solutions were diluted to 0.1 mM or 1.0 mM in acetonitrile (ACN). The 20 mg/mL human liver […] were diluted to 2.5 mg/mL in 0.1 M potassium phosphate buffer, pH 7.4, containing 3 mM MgCl2 and incubated with alamethicin at 10 μg/mL for 15 minutes on ice. The diluted S9 were added to wells of a 96-well deep-well polypropylene plate in triplicate. 15 μL of the 0.1 mM or 1.0 mM test compound was added to the S9 and the mixture was pre-warmed for 10 minutes. Reactions were initiated by addition of pre-warmed NADPH solution. […] The reaction mixtures were incubated at 37° C., and 50 μL aliquots were removed at 0 and 60 minutes and added to shallow-well 96-well plates which contained 50 μL of ice-cold ACN with internal standard to stop the reactions. The plates were stored at 4° C. for 20 minutes after which 100 μL of water was added to the wells of the plate before centrifugation to pellet precipitated proteins. Supernatants were transferred to another 96-well plate and analyzed for amounts of parent remaining by LC-MS/MS using an Applied Bio-systems API 4000 mass spectrometer.
Data analysis: The in vitro tu2s for test compounds were calculated from the slopes of the linear regression of % parent remaining (1n) vs incubation time relationship.
k=−[slope of linear regression of % parent remaining(ln) vs incubation time]
Data analysis was performed using Microsoft Excel Software.

[1] = human liver S9 fractions, 1 μM tested compound
[2] = human liver S9 fractions, 10 μM tested compound

CC(C)CCC(=O)CC1c2ccccc2C(=O)N1c1ccc2ccc(Cl)nc2n1 (racemic) [Pagoclone (racemic), 2-(7-chloro-1,8-naphthyridin-2-yl)-3-(5-methyl-2-oxohexyl)isoindolin-1-one, reference compound]
% Parent remaining at 1 hr [1]: 37 ± 3.8%
% Parent remaining at 1 hr [2]: 11 ± 1.2%

[2H]C([2H])(C(=O)C([2H])([2H])C([2H])([2H])C([2H])(C([2H])([2H])[2H])C([2H])([2H])[2H])C1c2ccccc2C(=O)N1c1ccc2ccc(Cl)nc2n1 (racemic) [Rac-141, (+/−)-2-(7-Chloro-1,8-naphthyridin-2-yl)-3-(5-(d3-methyl)-2-oxo-1,1,3,3,4,4,5,6,6,6-d10-hexyl)isoindolin-1-one]
% Δ of % parent remaining (relative to S) (1 μM tested compound): 46%
% Δ of % parent remaining (relative to racemic) (1 μM tested compound): 62%
% Δ of % parent remaining (relative to S) (10 μM tested compound): 61%
% Δ of % parent remaining (relative to racemic) (10 μM tested compound): 236%
% Parent remaining at 1 hr [1]: 60 ± 8.4%
% Parent remaining at 1 hr [2]: 37 ± 2.7%
metabolic stability compared to pagoclone and (S)-pagoclone (human liver S9 fractions, summary in words): substantially greater metabolic stability

CC(C)CCC(=O)CC1c2ccccc2C(=O)N1c1ccc2ccc(Cl)nc2n1 [Pagoclone (S), 2-(7-chloro-1,8-naphthyridin-2-yl)-3-(5-methyl-2-oxohexyl)isoindolin-1-one, reference compound]
% Parent remaining at 1 hr [1]: 41 ± 1.0%
% Parent remaining at 1 hr [2]: 23 ± 3.9%
